From patent US12540128B2, “Substituted pyridazinones as herbicides” (SYNGENTA CROP PROTECTION AG, priority 2019, dated 2026)

Assays:
Format in all cases: in vivo
Details in all cases: 250 g/ha, after 13 days
[1] = test system: Amaranthus retoflexus (AMARE); experiment: B1 Post-Emergence Efficacy Test 1
Protocol: (§1) Seeds of a variety of test species are sown in standard soil in pots:— Solanum nigrum (SOLNI), Amaranthus retoflexus (AMARE), Setaria faberi (SETFA), Echinochloa crus-galli (ECHCG), Ipomoea hederacea (IPOHE), Lolium perenne (LOLPE). After 8 days cultivation (post-emergence) under controlled conditions in a glasshouse (at 24/16° C., day/night; 14 hours light; 65% humidity), the plants are sprayed with an aqueous spray solution derived from the formulation of the technical active ingredient in acetone/water (50:50) solution containing 0.5% Tween 20 (polyoxyethylene sorbitan monolaurate, CAS RN 9005-64-5). Compounds are applied at 250 g/ha. The test plants are then grown in a glasshouse under controlled conditions in a glasshouse (at 24/16° C., day/night; 14 hours light; 65% humidity) and watered twice daily. After 13 days, the test is evaluated for the percentage damage caused to the plant. The biological activities are assessed on a five point scale (5=80-100%; 4=60-79%; 3=40-59%; 2=20-39%; 1=0-19%). A blank value in the table is indicative that the compound was not tested on that species.

[2] = test system: Echinochloa crus-galli (ECHCG); experiment: B1 Post-Emergence Efficacy Test 1
Protocol: as §1

[3] = test system: Ipomoea hederacea (IPOHE); experiment: B1 Post-Emergence Efficacy Test 1
Protocol: as §1

[4] = test system: Lolium perenne (LOLPE); experiment: B1 Post-Emergence Efficacy Test 1
Protocol: as §1

[5] = test system: Setaria faberi (SETFA); experiment: B1 Post-Emergence Efficacy Test 1
Protocol: as §1

[6] = test system: Solanum nigrum (SOLNI); experiment: B1 Post-Emergence Efficacy Test 1
Protocol: as §1

[7] = test system: Abutilon theophrasti (ABUTH); experiment: B2 Post-Emergence Efficacy Test 2
Protocol: as §1, with “pots:—” for “pots:— Solanum nigrum (SOLNI),”, “Zea Mays (ZEAMX), Abutilon theophrasti (ABUTH).” for “Lolium perenne (LOLPE).”

[8] = test system: Amaranthus retoflexus (AMARE); experiment: B2 Post-Emergence Efficacy Test 2
Protocol: as §1, with “pots:—” for “pots:— Solanum nigrum (SOLNI),”, “Zea Mays (ZEAMX), Abutilon theophrasti (ABUTH).” for “Lolium perenne (LOLPE).”

[9] = test system: Ipomoea hederacea (IPOHE); experiment: B2 Post-Emergence Efficacy Test 2
Protocol: as §1, with “pots:—” for “pots:— Solanum nigrum (SOLNI),”, “Zea Mays (ZEAMX), Abutilon theophrasti (ABUTH).” for “Lolium perenne (LOLPE).”

[10] = test system: Setaria faberi (SETFA); experiment: B2 Post-Emergence Efficacy Test 2
Protocol: as §1, with “pots:—” for “pots:— Solanum nigrum (SOLNI),”, “Zea Mays (ZEAMX), Abutilon theophrasti (ABUTH).” for “Lolium perenne (LOLPE).”

[11] = test system: Zea Mays (ZEAMX); experiment: B2 Post-Emergence Efficacy Test 2
Protocol: as §1, with “pots:—” for “pots:— Solanum nigrum (SOLNI),”, “Zea Mays (ZEAMX), Abutilon theophrasti (ABUTH).” for “Lolium perenne (LOLPE).”

[12] = test system: Abutilon theophrasti (ABUTH); experiment: B4 Pre-Emergence Efficacy Test 2
Protocol: (§2) Seeds of a variety of test species were sown in standard soil in pots: Amaranthus retoflexus (AMARE), Setaria faberi (SETFA), Echinochloa crus-galli (ECHCG), Ipomoea hederacea (IPOHE), Zea Mays (ZEAMX), Abutilon theophrasti (ABUTH). After cultivation for one day (pre-emergence) under controlled conditions in a glasshouse (at 24/16° C., day/night; 14 hours light; 65% humidity), the plants were sprayed with an aqueous spray solution derived from the formulation of the technical active ingredient in acetone/water (50:50) solution containing 0.5% Tween 20 (polyoxyethelyene sorbitan monolaurate, CAS RN 9005-64-5). Compounds are applied at 250 g/ha. The test plants were then grown in a glasshouse under controlled conditions (at 24/16° C., day/night; 14 hours light; 65% humidity) and watered twice daily. After 13 days, the test is evaluated for the percentage damage caused to the plant. The biological activities are assessed on a five point scale (5=80-100%; 4=60-79%; 3=40-59%; 2=20-39%; 1=0-19%). A blank value in the table is indicative that the compound was not tested on that species.

[13] = test system: Amaranthus retoflexus (AMARE); experiment: B4 Pre-Emergence Efficacy Test 2
Protocol: as §2

[14] = test system: Echinochloa crus-galli (ECHCG); experiment: B4 Pre-Emergence Efficacy Test 2
Protocol: as §2

[15] = test system: Ipomoea hederacea (IPOHE); experiment: B4 Pre-Emergence Efficacy Test 2
Protocol: as §2

[16] = test system: Setaria faberi (SETFA); experiment: B4 Pre-Emergence Efficacy Test 2
Protocol: as §2

[17] = test system: Zea Mays (ZEAMX); experiment: B4 Pre-Emergence Efficacy Test 2
Protocol: as §2

[18] = test system: Amaranthus retoflexus (AMARE); experiment: B3 Pre-Emergence Efficacy Test 1
Protocol: (§3) Seeds of a variety of test species were sown in standard soil in pots: Solanum nigrum (SOLNI), Amaranthus retoflexus (AMARE), Setaria faberi (SETFA), Echinochloa crus-galli (ECHCG), Ipomoea hederacea (IPOHE), Lolium perenne (LOLPE). After cultivation for one day (pre-emergence) under controlled conditions in a glasshouse (at 24/16° C., day/night; 14 hours light; 65% humidity), the plants were sprayed with an aqueous spray solution derived from the formulation of the technical active ingredient in acetone/water (50:50) solution containing 0.5% Tween 20 (polyoxyethelyene sorbitan monolaurate, CAS RN 9005-64-5). Compounds are applied at 250 g/ha. The test plants were then grown in a glasshouse under controlled conditions (at 24/16° C., day/night; 14 hours light; 65% humidity) and watered twice daily. After 13 days, the test is evaluated for the percentage damage caused to the plant. The biological activities are assessed on a five point scale (5=80-100%; 4=60-79%; 3=40-59%; 2=20-39%; 1=0-19%). A blank value in the table is indicative that the compound was not tested on that species.

[19] = test system: Echinochloa crus-galli (ECHCG); experiment: B3 Pre-Emergence Efficacy Test 1
Protocol: as §3

[20] = test system: Ipomoea hederacea (IPOHE); experiment: B3 Pre-Emergence Efficacy Test 1
Protocol: as §3

[21] = test system: Lolium perenne (LOLPE); experiment: B3 Pre-Emergence Efficacy Test 1
Protocol: as §3

[22] = test system: Setaria faberi (SETFA); experiment: B3 Pre-Emergence Efficacy Test 1
Protocol: as §3

[23] = test system: Solanum nigrum (SOLNI); experiment: B3 Pre-Emergence Efficacy Test 1
Protocol: as §3

[24] = test system: Echinochloa crus-galli (ECHCG); experiment: B2 Post-Emergence Efficacy Test 2
Protocol: Seeds of a variety of test species are sown in standard soil in pots:— Amaranthus retoflexus (AMARE), Setaria faberi (SETFA), Echinochloa crus-galli (ECHCG), Ipomoea hederacea (IPOHE), Zea Mays (ZEAMX), Abutilon theophrasti (ABUTH). After 8 days cultivation (post-emergence) under controlled conditions in a glasshouse (at 24/16° C., day/night; 14 hours light; 65% humidity), the plants are sprayed with an aqueous spray solution derived from the formulation of the technical active ingredient in acetone/water (50:50) solution containing 0.5% Tween 20 (polyoxyethylene sorbitan monolaurate, CAS RN 9005-64-5). Compounds are applied at 250 g/ha. The test plants are then grown in a glasshouse under controlled conditions in a glasshouse (at 24/16° C., day/night; 14 hours light; 65% humidity) and watered twice daily. After 13 days, the test is evaluated for the percentage damage caused to the plant. The biological activities are assessed on a five point scale (5=80-100%; 4=60-79%; 3=40-59%; 2=20-39%; 1=0-19%). A blank value in the table is indicative that the compound was not tested on that species.

SMILES	percentage damage caused to the plant, five point scale, AMARE [1]	percentage damage caused to the plant, five point scale, IPOHE [3]	percentage damage caused to the plant, five point scale, LOLPE [4]	percentage damage caused to the plant, five point scale, SETFA [5]	percentage damage caused to the plant, five point scale, SOLNI [6]	percentage damage caused to the plant, five point scale, ABUTH [7]	percentage damage caused to the plant, five point scale, AMARE [8]	percentage damage caused to the plant, five point scale, IPOHE [9]	percentage damage caused to the plant, five point scale, SETFA [10]	percentage damage caused to the plant, five point scale, ZEAMX [11]	percentage damage caused to the plant, five point scale, ABUTH [12]	percentage damage caused to the plant, five point scale, AMARE [13]	percentage damage caused to the plant, five point scale, ECHCG [14]	percentage damage caused to the plant, five point scale, IPOHE [15]	percentage damage caused to the plant, five point scale, SETFA [16]	percentage damage caused to the plant, five point scale, ZEAMX [17]	percentage damage caused to the plant, five point scale, AMARE [18]	percentage damage caused to the plant, five point scale, ECHCG [19]	percentage damage caused to the plant, five point scale, IPOHE [20]	percentage damage caused to the plant, five point scale, ECHCG [24]	further results
Cc1nn(C)c(=O)c(-c2c(F)ccc(Cl)c2CCc2ccc3c(c2)CC(=O)N3)c1O [Compound 1.357]	5 (5=80-100%)	5 (5=80-100%)	5 (5=80-100%)	5 (5=80-100%)	5 (5=80-100%)	4 (4=60-79%)	2 (2=20-39%)	4 (4=60-79%)	4 (4=60-79%)	5 (5=80-100%)	4 (4=60-79%)	4 (4=60-79%)	4 (4=60-79%)	3 (3=40-59%)	4 (4=60-79%)	1 (1=0-19%)					percentage damage caused to the plant, five point scale, ECHCG [2]: 4 (4=60-79%)
Cc1ccc2cc(/C=C/c3c(Cl)ccc(F)c3-c3c(OC(=O)C(C)C)c(C)nn(C)c3=O)ccc2n1 [Compound 4.034, [5-[3-chloro-6-fluoro-2-[(E)-2-(2-methyl-6-quinolyl)vinyl]phenyl]-1,3-dimethyl-6-oxo-pyridazin-4-yl] 2-methylpropanoate]	1 (1=0-19%)	3 (3=40-59%)	1 (1=0-19%)	2 (2=20-39%)	5 (5=80-100%)												0	0	0		percentage damage caused to the plant, five point scale, LOLPE [21]: 0; percentage damage caused to the plant, five point scale, SETFA [22]: 0; percentage damage caused to the plant, five point scale, SOLNI [23]: 1 (1=0-19%)
Cc1nn(C)c(=O)c(-c2c(F)ccc(Cl)c2CCc2ccc3c(c2)OC(C)(C)C3)c1O [Compound 1.340]						5 (5=80-100%)	5 (5=80-100%)	4 (4=60-79%)	5 (5=80-100%)	5 (5=80-100%)	5 (5=80-100%)	5 (5=80-100%)	5 (5=80-100%)	5 (5=80-100%)	5 (5=80-100%)	3 (3=40-59%)				5 (5=80-100%)	
Cc1nn(C)c(=O)c(-c2c(F)ccc(Cl)c2CCc2ccc3ccn(C)c3c2)c1O [Compound 1.355]						3 (3=40-59%)	4 (4=60-79%)	4 (4=60-79%)	2 (2=20-39%)	1 (1=0-19%)	0	3 (3=40-59%)	0	2 (2=20-39%)	1 (1=0-19%)	1 (1=0-19%)				1 (1=0-19%)	
Cc1nn(C)c(=O)c(-c2c(F)ccc(Cl)c2CCc2ccc3oc(=O)[nH]c3c2)c1O [Compound 1.352]						4 (4=60-79%)	4 (4=60-79%)	3 (3=40-59%)	4 (4=60-79%)	3 (3=40-59%)	4 (4=60-79%)	5 (5=80-100%)	3 (3=40-59%)	3 (3=40-59%)	5 (5=80-100%)	4 (4=60-79%)				4 (4=60-79%)	
Cc1ccc2cc(/C=C/c3c(Cl)ccc(F)c3-c3c(O)c(C)nn(C)c3=O)ccc2n1 [Compound 2.034, 4-[3-chloro-6-fluoro-2-[(E)-2-(2-methyl-6-quinolyl)vinyl]phenyl]-5-hydroxy-2,6-dimethyl-pyridazin-3-one]	1 (1=0-19%)	3 (3=40-59%)	2 (2=20-39%)	2 (2=20-39%)	5 (5=80-100%)												1 (1=0-19%)	1 (1=0-19%)	0		percentage damage caused to the plant, five point scale, LOLPE [21]: 1 (1=0-19%); percentage damage caused to the plant, five point scale, SETFA [22]: 1 (1=0-19%); percentage damage caused to the plant, five point scale, SOLNI [23]: 2 (2=20-39%)
